Reference: patent publication US12129221B2, “Difluoro phenyl amide RIP1 inhibitor” (SIRONAX LTD, priority 2018, dated 2024)
Read-outs that look alike come from different tables or passages of the source.

Tests used:
[1] = test system: necrosis; assay: Necrosis inhibitory activity (cell necrosis / cell viability assay); assay type: cell-based
Text: Necrosis Inhibitory Activity
(§1) Representative IC50 of hRIP1 Kinase Assay Correlated with Our IC50 of Cell Necrosis Assay: […]

[2] = test system: ferroptosis; assay: Ferroptosis inhibitor activity; assay type: cell-based; conditions: 1 uM threshold activity extrapolated
Text: Ferroptosis Inhibitor Activity 1 Um Threshold Activity Extrapolated

[3] = Liver microsome stability, human; assay type: in vitro ADME; conditions: liver microsomes, liver microsome stability, read-out: Human T1/2
Text: (§2) Representative Metabolic Stability Data I; +, Extrapolated.

[4] = Liver microsome stability, rat; assay type: in vitro ADME; conditions: liver microsomes, liver microsome stability, read-out: Rat T1/2
Text: as §2

[5] = Liver microsome stability, mouse; assay type: in vitro ADME; conditions: liver microsomes, liver microsome stability, read-out: Mouse T1/2
Text: as §2

[6] = Liver microsome stability, dog; assay type: in vitro ADME; parameters: key to Dog T1/2 (min): +, Extrapolated; conditions: liver microsome stability; for half-life: dog, liver microsomes, read-out: Dog T1/2
Text: as §2

[7] = Liver microsome stability, mini-pig; assay type: in vitro ADME; parameters: key to mini-pig T1/2 (min): +, Extrapolated; conditions: extrapolated
Text: as §2

[8] = Liver microsome stability, monkey; assay type: in vitro ADME; parameters: key to Monkey T1/2 (min): +, Extrapolated; conditions: liver microsome stability; for half-life: monkey, liver microsomes, read-out: Monkey T1/2
Text: as §2

[9] = Hepatocyte stability, human; assay type: in vitro ADME; parameters: key to Human T1/2 (min): +, Extrapolated; conditions: Hepatocyte stability; for Human T1/2 (min): extrapolated
Text: (§3) Representative Metabolic Stability Data II, +, Extrapolated.

[10] = Hepatocyte stability, rat; assay type: in vitro ADME; parameters: key to Rat T1/2 (min): +, Extrapolated; conditions: Hepatocyte stability; for Rat T1/2 (min): extrapolated
Text: as §3

[11] = Hepatocyte stability, mouse; assay type: in vitro ADME; parameters: key to Mouse T1/2 (min): +, Extrapolated; conditions: Hepatocyte stability; for Mouse T1/2 (min): extrapolated
Text: as §3

[12] = Hepatocyte stability, dog; assay type: in vitro ADME; parameters: key to Dog T1/2 (min): +, Extrapolated; conditions: Hepatocyte stability; for Dog T1/2 (min): extrapolated
Text: as §3

[13] = Hepatocyte stability, mini-pig; assay type: in vitro ADME; parameters: key to mini-pig T1/2 (min): +, Extrapolated; conditions: extrapolated
Text: as §3

[14] = Hepatocyte stability, monkey; assay type: in vitro ADME; parameters: key to Monkey T1/2 (min): +, Extrapolated; conditions: Hepatocyte stability; for Monkey T1/2 (min): extrapolated
Text: as §3

[15] = PK in rat; parameters: species or system SD rat; conditions: Sprague-Dawley, in vivo, SD rat; for bioavailability / half-life: rat, po
Text: Representative PK Date of Pro-Drug Compounds

[16] = biological target: Human RIP1 kinase (Homo sapiens (Human), UniProt Q13546); assay: Human RIP1 kinase assay; assay type: biochemical; conditions: given as bound or range
Chain of Human RIP1 kinase (Q13546 whole entry): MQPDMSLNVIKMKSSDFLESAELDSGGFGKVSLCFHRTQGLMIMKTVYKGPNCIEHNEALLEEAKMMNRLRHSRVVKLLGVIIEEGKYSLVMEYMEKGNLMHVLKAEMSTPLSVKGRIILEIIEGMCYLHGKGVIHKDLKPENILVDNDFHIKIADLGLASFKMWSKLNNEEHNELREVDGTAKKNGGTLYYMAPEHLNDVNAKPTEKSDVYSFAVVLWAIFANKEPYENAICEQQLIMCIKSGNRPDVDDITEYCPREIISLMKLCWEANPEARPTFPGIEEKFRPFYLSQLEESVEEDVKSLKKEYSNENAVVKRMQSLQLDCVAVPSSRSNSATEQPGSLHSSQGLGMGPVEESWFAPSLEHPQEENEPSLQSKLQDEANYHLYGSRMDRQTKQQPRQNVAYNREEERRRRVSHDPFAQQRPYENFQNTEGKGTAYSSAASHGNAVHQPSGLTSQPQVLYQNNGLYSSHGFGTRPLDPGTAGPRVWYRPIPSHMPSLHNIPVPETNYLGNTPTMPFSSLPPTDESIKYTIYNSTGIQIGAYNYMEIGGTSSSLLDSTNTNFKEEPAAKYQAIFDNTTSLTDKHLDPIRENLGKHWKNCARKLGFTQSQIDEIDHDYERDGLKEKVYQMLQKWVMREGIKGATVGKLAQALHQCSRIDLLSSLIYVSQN
Text: as §1

[17] = Necrosis Inhibitory Activity, given as range, read-out: EC50
[18] = 60 mg/kg, dose 60 mg/Kg micropower
[19] = cell necrosis assay, given as bound or range, read-out: Cell viability assay, EC50

Row | Structure (SMILES) | EC50 [2] | half-life [3] | half-life [4] | half-life [5] | mini-pig T1/2 (min) [7] | Human T1/2 (min) [9] | Rat T1/2 (min) [10] | Mouse T1/2 (min) [11] | Dog T1/2 (min) [12] | mini-pig T1/2 (min) [13] | Monkey T1/2 (min) [14] | AUC ([15]; PO 10 mg/kg) | bioavailability ([15]; 10 mg/kg, PO 10 mg/kg) | half-life ([15]; 10 mg/kg, PO 10 mg/kg) | half-life [6] | half-life [8] | EC50 [1, 17] | also measured
1 | [2H]CC([2H])C(C)(C)C(=O)N(O)Cc1cc(F)cc(F)c1 (centres unmarked) [Compound 26, N-(3,5-difluorobenzyl)-N-hydroxy-2,2-dimethylbutanamide-3,4-d2] | 1000 to 10000 nM | 136 min | 23.3 min | 21.1 min | + | – | – | – | – | – | – | – | – | – | 2.31 min | 4.97 min | 1 to 1000 nM | half-life ([9]; human, hepatocytes, read-out: Human T1/2): 110 min; half-life ([10]; rat, hepatocytes, read-out: Rat T1/2): 33.4 min; half-life ([11]; mouse, hepatocytes, read-out: Mouse T1/2): 21 min; half-life ([12]; dog, hepatocytes, read-out: Dog T1/2): 8.43 min; half-life ([14]; monkey, hepatocytes, read-out: Monkey T1/2): 19.3 min; AUC ([15]; PO, dose 60 mg/Kg micropower): 8340 ng·h/mL; bioavailability [15, 18]: 74.1%; half-life [15, 18]: 171 min
2 | [2H]CC([2H])C(C)(C)C(=O)N(O)Cc1ccccc1 (centres unmarked) [Compound 27, N-benzyl-N-hydroxy-2,2-dimethylbutanamide-3,4-d2] | 1000 to 10000 nM | 178 min | 19.8 min | 26.5 min | + | + | + | + | + | + | + | 78.6 ng·h/mL | 5.29% | 55.2 min | 1.5 min | 0.6 min | 1 to 1000 nM | –
3 | CCC1(C(=O)N(O)Cc2ccccc2)CC1 [Compound 38, N-benzyl-1-ethyl-N-hydroxycyclopropane-1-carboxamide] | 1000 to 10000 nM | – | – | – | – | – | – | – | – | – | – | – | – | – | – | – | 1000 to 10000 nM | EC50 [1, 19]: 1 to 10000 nM; IC50 [16]: 100 to 1000 nM
4 | Cc1ccsc1CN(O)C(=O)C(C)(C)C(F)(F)F [Compound 48, 3,3,3-trifluoro-N-hydroxy-2,2-dimethyl-N-((3-methylthiophen-2-yl)methyl)propanamide] | 1000 to 10000 nM | – | – | – | – | – | – | – | – | – | – | – | – | – | – | – | 1000 to 10000 nM | EC50 [1, 19]: 1 to 10000 nM; IC50 [16]: 100 to 1000 nM

More lines, main results first:

Row | EC50 [2] | half-life [3] | half-life [4] | half-life [5] | mini-pig T1/2 (min) [7] | Human T1/2 (min) [9] | Rat T1/2 (min) [10] | Mouse T1/2 (min) [11] | Dog T1/2 (min) [12] | mini-pig T1/2 (min) [13] | Monkey T1/2 (min) [14] | AUC ([15]; PO 10 mg/kg) | bioavailability ([15]; 10 mg/kg, PO 10 mg/kg) | half-life ([15]; 10 mg/kg, PO 10 mg/kg) | half-life [6] | half-life [8] | Structure (SMILES) | EC50 [1, 17] | also measured
5 | 1000 to 10000 nM | 96.8 min | 41.1 min | 16.6 min | + | + | + | + | + | + | + | 923 ng·h/mL | 20.3% | 293 min | – | – | CCC(C)(C)C(=O)N(O)Cc1ccc(Cl)cc1 [Compound 15, N-(4-chlorobenzyl)-N-hydroxy-2,2-dimethylbutanamide] | 1 to 1000 nM | Dog T1/2 (min) ([6]; extrapolated): +; Monkey T1/2 (min) ([8]; extrapolated): +
6 | 1000 to 10000 nM | 154 min | 28.9 min | 25.4 min | + | + | + | + | + | + | + | – | – | – | 6 min | 0.3 min | C=CC(C)(C)C(=O)N(O)Cc1ccccc1 [Compound 19, N-benzyl-N-hydroxy-2,2-dimethylbut-3-enamide] | 1 to 1000 nM | –
7 | 1000 to 10000 nM | 195 min | 28.6 min | 33.6 min | + | + | + | + | + | + | + | 318 ng·h/mL | 14.8% | 37 min | 3.5 min | 3.3 min | [2H]C([2H])C([2H])([2H])C(C)(C)C(=O)N(O)Cc1ccccc1 [Compound 28, N-benzyl-N-hydroxy-2,2-dimethylbutanamide-3,3,4,4-d4] | 1 to 1000 nM | –
